Values of other authors as cited in patent US20230149366A1, “SOLID DOSAGE FORMS OF TAFAMIDIS” (Nuray Chemicals Private Limited, priority 2021, published 2023).

Settings: Vyndaqel European Public assessment report

Solubility in vehicles commonly used in formulating soft gelatin capsules: poor solubility | Gel formation in hard gelatin capsule with standard excipients (upon contact with aqueous vehicles): formed a rigid gel structure
Compound: O=C(O)c1ccc2nc(-c3cc(Cl)cc(Cl)c3)oc2c1 [tafamidis, 2-(3,5-dichlorophenyl)-1,3-benzoxazole-6-carboxylic acid]
